Results published in patent US20170190671A1, “BIS(ARYL)CATECHOL DERIVATIVES AS HERBICIDES” (E I DU PONT DE NEMOURS AND COMPANY, priority 2014, published 2017).

Experiments:
Format in all cases: in vivo
[1] = system: galium (catchweed bedstraw, Galium aparine); assay: Test C preemergence; details: Galium, pre-emergence, 336 h, scale 0 to 100, read-out: Plant response rating, Galium
Description: (§1) Seeds of plant species selected from blackgrass (Alopecurus myosuroides), Italian ryegrass (Lolium multiflorum), winter wheat (Triticum aestivum), galium (catchweed bedstraw, Galium aparine), corn (Zea mays), large (Lg) crabgrass (Digitaria sanguinalis), giant foxtail (Setaria faberii), johnsongrass (Sorghum halepense), lambsquarters (Chenopodium album), morningglory (Ipomoea coccinea), yellow nutsedge (Cyperus esculentus), pigweed (Amaranthus retroflexus), ragweed (common ragweed, Ambrosia elatior), soybean (Glycine max), barnyardgrass (Echinochloa crus-galli), oilseed rape (Brassica napus), waterhemp (common waterhemp, Amaranthus rudis), and velvetleaf (Abutilon theophrasti) were planted into a blend of loam soil and sand and treated preemergence with test chemicals formulated in a non-phytotoxic solvent mixture which included a surfactant.
(§2) At the same time, plants selected from these crop and weed species and also chickweed (common chickweed, Stellaria media), kochia (Kochia scoparia), and wild oat (Avena fatua), were planted in pots containing Redi-Earth® planting medium (Scotts Company, 14111 Scottslawn Road, Marysville, Ohio 43041) comprising spaghnum peat moss, vermiculite, wetting agent and starter nutrients and treated with postemergence applications of test chemicals formulated in the same manner. Plants ranged in height from 2 to 18 cm (1- to 4-leaf stage) for postemergence treatments. Treated plants and controls were maintained in a greenhouse for 13 to 15 days, after which time all species were compared to controls and visually evaluated. Plant response ratings, summarized in Table C, are based on a scale of 0 to 100 where 0 is no effect and 100 is complete control. A dash (-) response means no test result.

[2] = system: morningglory (Ipomoea coccinea); assay: Test C preemergence; details: Ipomoea, pre-emergence, 336 h, scale 0 to 100, read-out: Plant response rating, Morningglory
Description: as §1, §2

[3] = system: oilseed rape (Brassica napus); assay: Test C preemergence; details: Brassica napus, pre-emergence, scale 0 to 100, read-out: Plant response rating, Oilseed Rape
Description: as §1, §2

[4] = system: waterhemp (common waterhemp, Amaranthus rudis); assay: Test C preemergence; details: Amaranthus tuberculatus, pre-emergence, scale 0 to 100, read-out: Plant response rating, Waterhemp
Description: as §1, §2

[5] = system: Italian ryegrass (Lolium multiflorum); assay: Test C postemergence; details: Lolium multiflorum, post-emergence, 336 h, Postemergence, scale 0 to 100, read-out: Plant response rating, Ryegrass, Italian
[6] = system: barnyardgrass (Echinochloa crus-galli); assay: Test C postemergence; details: Echinochloa crus-galli, post-emergence, Postemergence, scale 0 to 100, read-out: Plant response rating, Barnyardgrass
[7] = system: blackgrass (Alopecurus myosuroides); assay: Test C postemergence; details: Alopecurus myosuroides, post-emergence, 336 h, Postemergence, scale 0 to 100, read-out: Plant response rating, Blackgrass
[8] = system: chickweed (common chickweed, Stellaria media); assay: Test C postemergence; details: Stellaria media, post-emergence, Postemergence, scale 0 to 100, read-out: Plant response rating, Chickweed
[9] = system: corn (Zea mays); assay: Test C postemergence; details: Zea mays, post-emergence, 336 h, Postemergence, scale 0 to 100
[10] = system: johnsongrass (Sorghum halepense); assay: Test C postemergence; details: Sorghum halepense, post-emergence, 336 h, Postemergence, scale 0 to 100, read-out: Plant response rating, Johnsongrass
[11] = system: kochia (Kochia scoparia); assay: Test C postemergence; details: Bassia scoparia, post-emergence, Postemergence, scale 0 to 100, read-out: Plant response rating, Kochia
[12] = system: lambsquarters (Chenopodium album); assay: Test C postemergence; details: Chenopodium album, post-emergence, 336 h, Postemergence, scale 0 to 100, read-out: Plant response rating, Lambsquarters
[13] = system: large (Lg) crabgrass (Digitaria sanguinalis); assay: Test C postemergence; details: Digitaria sanguinalis, post-emergence, 336 h, Postemergence, scale 0 to 100, read-out: Plant response rating, Crabgrass, Large
[14] = system: oilseed rape (Brassica napus); assay: Test C postemergence; details: Brassica napus, post-emergence, Postemergence, scale 0 to 100, read-out: Plant response rating, Oilseed Rape
[15] = system: pigweed (Amaranthus retroflexus); assay: Test C postemergence; details: Amaranthus retroflexus, post-emergence, 336 h, Postemergence, scale 0 to 100, read-out: Plant response rating, Pigweed
[16] = system: ragweed (common ragweed, Ambrosia elatior); assay: Test C postemergence; details: Ambrosia artemisiifolia, post-emergence, 336 h, Postemergence, scale 0 to 100, read-out: Plant response rating, Ragweed
[17] = system: soybean (Glycine max); assay: Test C postemergence; details: Glycine max, post-emergence, Postemergence, scale 0 to 100, read-out: Plant response rating, Soybean
[18] = system: velvetleaf (Abutilon theophrasti); assay: Test C postemergence; details: Abutilon theophrasti, post-emergence, Postemergence, scale 0 to 100, read-out: Plant response rating, Velvetleaf
[19] = system: waterhemp (common waterhemp, Amaranthus rudis); assay: Test C postemergence; details: Amaranthus tuberculatus, post-emergence, Postemergence, scale 0 to 100, read-out: Plant response rating, Waterhemp
[20] = system: wild oat (Avena fatua); assay: Test C postemergence; details: Avena fatua, post-emergence, Postemergence, scale 0 to 100, read-out: Plant response rating, Oat, Wild
[21] = system: winter wheat (Triticum aestivum); assay: Test C postemergence; details: Triticum aestivum, post-emergence, 336 h, Postemergence, scale 0 to 100, read-out: Plant response rating, Wheat
[22] = system: yellow nutsedge (Cyperus esculentus); assay: Test C postemergence; details: Cyperus, post-emergence, 336 h, Postemergence, scale 0 to 100, read-out: Plant response rating, Nutsedge, Yellow

N#Cc1cccc(Oc2ncc(Cl)cn2)c1Oc1ncc(Br)cn1 [Compound 4, 2-[(5-bromo-2-pyrimidinyl)oxy]-3-[(5-chloro-2-pyrimidinyl)oxy]benzonitrile]
pest or weed control at 31 g/ha ([1]; 31 g ai/ha, preemergence): 30% | pest or weed control at 62 g/ha ([1]; 62 g ai/ha, preemergence): 30% | pest or weed control at 125 g/ha ([1]; 125 g ai/ha, preemergence): 100% | pest or weed control at 16 g/ha ([1]; Preemergence, 16 g ai/ha): 5% | pest or weed control at 31 g/ha ([2]; 31 g ai/ha, preemergence): 35% | pest or weed control at 62 g/ha ([2]; 62 g ai/ha, preemergence): 55% | pest or weed control at 125 g/ha ([2]; 125 g ai/ha, preemergence): 98% | pest or weed control at 16 g/ha ([2]; Preemergence, 16 g ai/ha): 5% | plant injury at 31 g/ha ([3]; 31 g ai/ha, preemergence): 75% | plant injury at 62 g/ha ([3]; 62 g ai/ha, preemergence): 90% | plant injury at 125 g/ha ([3]; 125 g ai/ha, preemergence): 100% | plant injury at 16 g/ha ([3]; Preemergence, 16 g ai/ha): 15% | pest or weed control at 31 g/ha ([4]; 31 g ai/ha, preemergence): 100% | pest or weed control at 62 g/ha ([4]; 62 g ai/ha, preemergence): 100% | pest or weed control at 125 g/ha ([4]; 125 g ai/ha, preemergence): 100% | pest or weed control at 16 g/ha ([4]; Preemergence, 16 g ai/ha): 45% | pest or weed control at 31 g/ha ([5]; 31 g ai/ha): 0% | pest or weed control at 62 g/ha ([5]; 62 g ai/ha): 0% | pest or weed control at 125 g/ha ([5]; 125 g ai/ha): 5% | pest or weed control at 16 g/ha ([6]; 16 g ai/ha): 5% | pest or weed control at 31 g/ha ([6]; 31 g ai/ha): 5% | pest or weed control at 62 g/ha ([6]; 62 g ai/ha): 5% | pest or weed control at 125 g/ha ([6]; 125 g ai/ha): 5% | pest or weed control at 16 g/ha ([7]; 16 g ai/ha): 0% | pest or weed control at 31 g/ha ([7]; 31 g ai/ha): 0% | pest or weed control at 62 g/ha ([7]; 62 g ai/ha): 0% | pest or weed control at 125 g/ha ([7]; 125 g ai/ha): 10% | pest or weed control at 16 g/ha ([8]; 16 g ai/ha): 20% | pest or weed control at 31 g/ha ([8]; 31 g ai/ha): 40% | pest or weed control at 62 g/ha ([8]; 62 g ai/ha): 50% | pest or weed control at 125 g/ha ([8]; 125 g ai/ha): 80% | Corn plant response rating (crop injury, 0 = no effect, 100 = complete kill) at 16 g/ha ([9]; 16 g ai/ha): 5% | Corn plant response rating (crop injury, 0 = no effect, 100 = complete kill) at 31 g/ha ([9]; 31 g ai/ha): 5% | Corn plant response rating (crop injury, 0 = no effect, 100 = complete kill) at 62 g/ha ([9]; 62 g ai/ha): 5% | Corn plant response rating (crop injury, 0 = no effect, 100 = complete kill) at 125 g/ha ([9]; 125 g ai/ha): 10% | pest or weed control at 16 g/ha ([10]; 16 g ai/ha): 5% | pest or weed control at 31 g/ha ([10]; 31 g ai/ha): 5% | pest or weed control at 62 g/ha ([10]; 62 g ai/ha): 5% | pest or weed control at 125 g/ha ([10]; 125 g ai/ha): 5% | pest or weed control at 16 g/ha ([11]; 16 g ai/ha): 60% | pest or weed control at 31 g/ha ([11]; 31 g ai/ha): 60% | pest or weed control at 62 g/ha ([11]; 62 g ai/ha): 80% | pest or weed control at 125 g/ha ([11]; 125 g ai/ha): 100% | pest or weed control at 16 g/ha ([12]; 16 g ai/ha): 30% | pest or weed control at 31 g/ha ([12]; 31 g ai/ha): 70% | pest or weed control at 62 g/ha ([12]; 62 g ai/ha): 80% | pest or weed control at 125 g/ha ([12]; 125 g ai/ha): 90% | pest or weed control at 16 g/ha ([13]; 16 g ai/ha): 5% | pest or weed control at 31 g/ha ([13]; 31 g ai/ha): 5% | pest or weed control at 62 g/ha ([13]; 62 g ai/ha): 5% | pest or weed control at 125 g/ha ([13]; 125 g ai/ha): 10% | plant injury at 31 g/ha ([14]; 31 g ai/ha): 10% | plant injury at 62 g/ha ([14]; 62 g ai/ha): 45% | plant injury at 125 g/ha ([14]; 125 g ai/ha): 60% | pest or weed control at 31 g/ha ([15]; 31 g ai/ha): 65% | pest or weed control at 62 g/ha ([15]; 62 g ai/ha): 80% | pest or weed control at 125 g/ha ([15]; 125 g ai/ha): 95% | pest or weed control at 31 g/ha ([16]; 31 g ai/ha): 50% | pest or weed control at 62 g/ha ([16]; 62 g ai/ha): 75% | pest or weed control at 125 g/ha ([16]; 125 g ai/ha): 85% | plant injury at 31 g/ha ([17]; 31 g ai/ha): 70% | plant injury at 62 g/ha ([17]; 62 g ai/ha): 70% | plant injury at 125 g/ha ([17]; 125 g ai/ha): 70% | pest or weed control at 31 g/ha ([18]; 31 g ai/ha): 40% | pest or weed control at 62 g/ha ([18]; 62 g ai/ha): 50% | pest or weed control at 125 g/ha ([18]; 125 g ai/ha): 60% | pest or weed control at 31 g/ha ([19]; 31 g ai/ha): 55% | pest or weed control at 62 g/ha ([19]; 62 g ai/ha): 75% | pest or weed control at 125 g/ha ([19]; 125 g ai/ha): 70% | pest or weed control at 31 g/ha ([20]; 31 g ai/ha): 5% | pest or weed control at 62 g/ha ([20]; 62 g ai/ha): 10% | pest or weed control at 125 g/ha ([20]; 125 g ai/ha): 10% | plant injury at 31 g/ha ([21]; 31 g ai/ha): 0% | plant injury at 62 g/ha ([21]; 62 g ai/ha): 5% | plant injury at 125 g/ha ([21]; 125 g ai/ha): 5% | pest or weed control at 31 g/ha ([22]; 31 g ai/ha): 0% | pest or weed control at 62 g/ha ([22]; 62 g ai/ha): 10% | pest or weed control at 125 g/ha ([22]; 125 g ai/ha): 10%
